Laboratory results taken from patent US8765773B2, “Substituted hydroxamic acids and uses thereof” (Millennium Pharmaceuticals, Inc., priority 2010, dated 2014).

molecular target: T1, purified human HDAC6 (Homo sapiens, UniProt Q9UBN7); assay: HDAC6 Enzyme Assay; format: biochemical; details: compound concentration 0.37 μM, read-out: Percent Inhibition
T1 construct: purchased BPS Bioscience 5006
T1 sequence (Q9UBN7 1-1215): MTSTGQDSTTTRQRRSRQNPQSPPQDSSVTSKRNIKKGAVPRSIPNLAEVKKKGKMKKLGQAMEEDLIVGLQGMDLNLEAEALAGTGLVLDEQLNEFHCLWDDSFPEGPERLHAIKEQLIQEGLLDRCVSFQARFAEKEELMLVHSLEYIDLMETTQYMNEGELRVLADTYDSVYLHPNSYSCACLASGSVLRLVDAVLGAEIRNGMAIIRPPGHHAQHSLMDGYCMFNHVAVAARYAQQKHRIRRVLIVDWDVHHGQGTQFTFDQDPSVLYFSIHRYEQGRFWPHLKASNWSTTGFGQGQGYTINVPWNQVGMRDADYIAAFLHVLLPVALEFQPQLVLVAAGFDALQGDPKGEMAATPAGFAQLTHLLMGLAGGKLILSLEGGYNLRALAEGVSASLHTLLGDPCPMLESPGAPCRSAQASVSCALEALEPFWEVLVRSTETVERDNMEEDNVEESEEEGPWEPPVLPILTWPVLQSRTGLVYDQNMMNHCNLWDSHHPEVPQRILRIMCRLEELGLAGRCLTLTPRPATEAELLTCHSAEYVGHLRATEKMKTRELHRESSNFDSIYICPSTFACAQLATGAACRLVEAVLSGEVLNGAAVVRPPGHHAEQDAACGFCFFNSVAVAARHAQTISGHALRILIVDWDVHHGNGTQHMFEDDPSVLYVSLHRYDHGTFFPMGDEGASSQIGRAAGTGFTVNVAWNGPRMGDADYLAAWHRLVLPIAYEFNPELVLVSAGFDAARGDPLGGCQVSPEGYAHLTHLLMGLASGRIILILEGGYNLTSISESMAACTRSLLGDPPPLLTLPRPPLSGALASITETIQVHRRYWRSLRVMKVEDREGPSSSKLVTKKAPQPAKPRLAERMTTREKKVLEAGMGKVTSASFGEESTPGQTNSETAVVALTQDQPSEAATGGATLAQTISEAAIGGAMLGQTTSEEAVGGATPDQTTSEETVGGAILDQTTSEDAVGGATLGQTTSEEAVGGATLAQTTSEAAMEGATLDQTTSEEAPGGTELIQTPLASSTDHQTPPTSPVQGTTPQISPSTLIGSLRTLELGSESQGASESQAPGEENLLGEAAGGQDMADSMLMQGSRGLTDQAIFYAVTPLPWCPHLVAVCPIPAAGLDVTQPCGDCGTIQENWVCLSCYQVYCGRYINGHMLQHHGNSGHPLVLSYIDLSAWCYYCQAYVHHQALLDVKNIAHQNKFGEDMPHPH
Summary of the method: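 Purified human HDAC6 incubated 1 h at 30° C with Ac-Arg-Gly-Lys(Ac)-AMC peptide plus compound or DMSO; stopped with trichostatin A. Deacetylated product trypsin-digested, released AMC read by fluorescence (Ex 340/Em 460 nm). Percent inhibition at one concentration or IC50 from curves relative to DMSO controls.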

inhibition at 0.37 µM | SMILES
90.5% | Cc1noc(C)c1-c1cccc(CCn2cnc3ccc(C(=O)NO)cc3c2=O)c1 [Compound I-336, 3-{2-[3-(3,5-dimethylisoxazol-4-yl)phenyl]ethyl}-N-hydroxy-4-oxo-3,4-dihydroquinazoline-6-carboxamide]
93% | Cc1ccc(CCc2nc3cc(C(=O)NO)ccc3c(=O)[nH]2)o1 [Compound I-412, N-hydroxy-2-[2-(5-methyl-2-furyl)ethyl]-4-oxo-3,4-dihydroquinazoline-7-carboxamide]
93.2% | CC(C)(C)OC(=O)N1CCC(c2cccc(CCn3ccc4ccc(C(=O)NO)cc4c3=O)c2)CC1 [Compound I-317, tert-butyl 4-(3-{2-[7-[(hydroxyamino)carbonyl]-1-oxoisoquinolin-2(1H)-yl]ethyl}phenyl)piperidine-1-carboxylate]
80.8% | COc1ccc(-c2nc3cc(C(=O)NO)ccc3c(=O)[nH]2)cc1 [Compound I-395, N-hydroxy-2-(4-methoxyphenyl)-4-oxo-3,4-dihydroquinazoline-7-carboxamide]
69.5% | CC(C)c1cccc(-c2cccc(CCn3cnc4ccc(C(=O)NO)cc4c3=O)c2)c1 [Compound I-342, N-hydroxy-3-[2-(3′-isopropylbiphenyl-3-yl)ethyl]-4-oxo-3,4-dihydroquinazoline-6-carboxamide]
99.2% | CC(c1ccccc1)n1cnc2ccc(C(=O)NO)cc2c1=O (stereo not shown) [Compound I-12, N-hydroxy-4-oxo-3-(1-phenylethyl)-3,4-dihydroquinazoline-6-carboxamide]
68.1% | COc1ccncc1-c1nc2cc(C(=O)NO)ccc2c(=O)[nH]1 [Compound I-410, N-hydroxy-2-(4-methoxypyridin-3-yl)-4-oxo-3,4-dihydroquinazoline-7-carboxamide]
87.7% | O=C(NO)c1ccc2ncn(CCc3cccc(-c4cccc(Cl)c4)c3)c(=O)c2c1 [Compound I-316, 3-[2-(3′-chlorobiphenyl-3-yl)ethyl]-N-hydroxy-4-oxo-3,4-dihydroquinazoline-6-carboxamide]

same assay, conditions: compound concentration 0.412 μM, read-out: Percent Inhibition

inhibition at 0.412 µM | SMILES
91.8% | O=C(NO)c1ccc2ncn(Cc3ccccc3C(F)(F)F)c(=O)c2c1 [Compound I-36, N-hydroxy-4-oxo-3-[2-(trifluoromethyl)benzyl]-3,4-dihydroquinazoline-6-carboxamide]
96.1% | Cc1onc(-c2ccccc2)c1Cn1ccc2ccc(C(=O)NO)cc2c1=O [Compound I-259, N-hydroxy-2-[(5-methyl-3-phenylisoxazol-4-yl)methyl]-1-oxo-1,2-dihydroisoquinoline-7-carboxamide]
93% | O=C(NO)c1ccc2ccn(CCOc3cc(Cl)cc(Cl)c3)c(=O)c2c1 [Compound I-99, 2-[2-(3,5-dichlorophenoxy)ethyl]-N-hydroxy-1-oxo-1,2-dihydroisoquinoline-7-carboxamide]
95% | O=C(NO)c1ccc2ccn(Cc3ccccc3CS(=O)(=O)c3ccccc3)c(=O)c2c1 [Compound I-178, N-hydroxy-1-oxo-2-{2-[(phenylsulfonyl)methyl]benzyl}-1,2-dihydroisoquinoline-7-carboxamide]
91.2% | Cc1cc(Cn2ccc3ccc(C(=O)NO)cc3c2=O)no1 [Compound I-148, N-hydroxy-2-[(5-methylisoxazol-3-yl)methyl]-1-oxo-1,2-dihydroisoquinoline-7-carboxamide]
89.9% | O=C(NO)c1ccc2ccn(CCCC3CCCCC3)c(=O)c2c1 [Compound I-153, 2-(3-cyclohexylpropyl)-N-hydroxy-1-oxo-1,2-dihydroisoquinoline-7-carboxamide]
61.7% | O=C(NO)c1ccc2c(=O)[nH]c(C(=O)NCc3ccc(Cl)cc3)nc2c1 [Compound I-68, N^2-(4-chlorobenzyl)-N^7-hydroxy-4-oxo-3,4-dihydroquinazoline-2,7-dicarboxamide]
94.8% | COc1ccc2ccc(OCCCn3ccc4ccc(C(=O)NO)cc4c3=O)cc2c1 [Compound I-231, N-hydroxy-2-{3-[(7-methoxy-2-naphthyl)oxy]propyl}-1-oxo-1,2-dihydroisoquinoline-7-carboxamide]
94.4% | Cc1cc(C)cc(Cn2ccc3ccc(C(=O)NO)cc3c2=O)c1 [Compound I-33, 2-(3,5-dimethylbenzyl)-N-hydroxy-1-oxo-1,2-dihydroisoquinoline-7-carboxamide]
94.8% | O=C(NO)c1ccc2c(=O)n(CCCc3ccccc3)cnc2c1 [Compound I-74, N-hydroxy-4-oxo-3-(3-phenylpropyl)-3,4-dihydroquinazoline-7-carboxamide]
89.9% | CCN(CC)Cc1cccc(Cn2ccc3ccc(C(=O)NO)cc3c2=O)c1 [Compound I-208, 2-{3-[(diethylamino)methyl]benzyl}-N-hydroxy-1-oxo-1,2-dihydroisoquinoline-7-carboxamide]
59.5% | Cn1c(NCc2ccc(Cl)cc2)nc2ccc(C(=O)NO)cc2c1=O [Compound I-165, 2-[(4-chlorobenzyl)amino]-N-hydroxy-3-methyl-4-oxo-3,4-dihydroquinazoline-6-carboxamide]
60.8% | Cn1c(NCCc2ccc(Cl)cc2)nc2ccc(C(=O)NO)cc2c1=O [Compound I-243, 2-{[2-(4-chlorophenyl)ethyl]amino}-N-hydroxy-3-methyl-4-oxo-3,4-dihydroquinazoline-6-carboxamide]
74.2% | O=C(NO)c1ccc2c(=O)n(-c3ccccc3)c(NCc3ccc(Cl)cc3)nc2c1 [Compound I-86, 2-[(4-chlorobenzyl)amino]-N-hydroxy-4-oxo-3-phenyl-3,4-dihydroquinazoline-7-carboxamide]
30.6% | CC(C)(C)c1cccc(OCc2nc3cc(C(=O)NO)ccc3c(=O)[nH]2)c1 [Compound I-17, 2-[(3-tert-butylphenoxy)methyl]-N-hydroxy-4-oxo-3,4-dihydroquinazoline-7-carboxamide]
96.2% | CS(=O)(=O)c1ccccc1OCCCn1ccc2ccc(C(=O)NO)cc2c1=O [Compound I-51, N-hydroxy-2-{3-[2-(methylsulfonyl)phenoxy]propyl}-1-oxo-1,2-dihydroisoquinoline-7-carboxamide]
65.7% | O=C(NO)c1ccc2c(=O)[nH]c(CNC3CCNCC3)nc2c1 [Compound I-146, N-hydroxy-4-oxo-2-[(piperidin-4-ylamino)methyl]-3,4-dihydroquinazoline-7-carboxamide]
94.1% | O=C(NO)c1ccc2ncn(Cc3csc4ccc(Cl)cc34)c(=O)c2c1 [Compound I-164, 3-[(5-chloro-1-benzothien-3-yl)methyl]-N-hydroxy-4-oxo-3,4-dihydroquinazoline-6-carboxamide]
96.9% | Cc1ccc(OCCn2ccc3ccc(C(=O)NO)cc3c2=O)cc1 [Compound I-212, N-hydroxy-2-[2-(4-methylphenoxy)ethyl]-1-oxo-1,2-dihydroisoquinoline-7-carboxamide]
94.9% | O=C(NO)c1ccc2ccn(Cc3ccc(F)cc3Cl)c(=O)c2c1 [Compound I-50, 2-(2-chloro-4-fluorobenzyl)-N-hydroxy-1-oxo-1,2-dihydroisoquinoline-7-carboxamide]
80.7% | O=C(NO)c1ccc2c(=O)[nH]c(COc3ccc(-n4ccnc4)cc3)nc2c1 [Compound I-210, N-hydroxy-2-{[4-(1H-imidazol-1-yl)phenoxy]methyl}-4-oxo-3,4-dihydroquinazoline-7-carboxamide]
95.5% | O=C(NO)c1ccc2ccn(CCOc3cccc(C(F)(F)F)c3)c(=O)c2c1 [Compound I-282, N-hydroxy-1-oxo-2-{2-[3-(trifluoromethyl)phenoxy]ethyl}-1,2-dihydroisoquinoline-7-carboxamide]
93.8% | O=C(NO)c1ccc2ncn(CCCc3ccccc3)c(=O)c2c1 [Compound I-239, N-hydroxy-4-oxo-3-(3-phenylpropyl)-3,4-dihydroquinazoline-6-carboxamide]
